Numbers after ± are expanded uncertainties.
Conditions: Maximal bubble pressure

A surface tension liquid-gas (353.15 K) of 39.6 ± 1.6 mN/m, a surface tension liquid-gas (373.15 K) of 37.53 ± 1.5 mN/m and a surface tension liquid-gas (393.15 K) of 35.33 ± 1.4 mN/m were found for `O=C(OCc1ccccc1)c1ccccc1` [benzyl benzoate] in this work. The surface tension liquid-gas (413.15 K) was 33.3 ± 1.4 mN/m, the surface tension liquid-gas (433.15 K) was 31.1 ± 1.3 mN/m and the surface tension liquid-gas (453.15 K) was 28.95 ± 1.2 mN/m. It also gave a surface tension liquid-gas (473.15 K) of 26.8 ± 1.1 mN/m.
A surface tension liquid-gas (303.15 K) of 21.75 ± 0.89 mN/m, a surface tension liquid-gas (313.15 K) of 20.9 ± 0.86 mN/m and a surface tension liquid-gas (323.15 K) of 20.04 ± 0.82 mN/m were found for `CO` [methanol] in this work. For the same compound, the surface tension liquid-gas (333.15 K) was 19.18 ± 0.79 mN/m and the surface tension liquid-gas (343.15 K) was 18.32 ± 0.75 mN/m.

From the NIST ThermoML archive (doi:10.1021/je700578f)
